According to US9980943B2, “Methods of treating muscular dystrophy” (BOARD OF REGENTS OF THE NEVADA SYSTEM OF HIGHER EDUCATION, …, priority 2013, dated 2018):

Experiments:
Type in all cases: cell-based, mouse
[1] = system: α7 integrin (LacZ reporter in α7βgal+/− myoblasts); experiment: Myoblast α7+/LacZ integrin FDG assay (Burkin assay in myoblasts, 96-well); settings: α7+/LacZ myoblasts, 96-well; for fold induction at 0.5 µM / fold induction at 1 µM / fold induction at 5 µM / fold induction at 10 µM / fold induction at 20 µM / fold induction at 40 µM: Mus musculus, Myoblast, 48 h, read-out: Burkin Assay in Myoblasts, value relative to DMSO
[2] = system: α7 integrin (LacZ reporter in α7+/LacZ myotubes); experiment: Myotube α7 integrin FDG assay (Burkin assay in myotubes, 96-well); settings: myotubes; for fold induction at 0.5 µM / fold induction at 1 µM / fold induction at 5 µM / fold induction at 10 µM / fold induction at 20 µM / fold induction at 40 µM: Mus musculus, Myotube, read-out: Burkin Assay in Myotubes (signal relative to DMSO)
[3] = system: β-galactosidase in CMV-LacZ C2C12 myotubes; experiment: CMV-LacZ secondary screen in C2C12 myotubes (β-Gal stabilizing assay); settings: for CMV-LACZ in Myotubes (β-galactosidase activity relative to DMSO): CMV-LacZ C2C12 myotubes, 96-well format; for CMV-LACZ in Myotubes, signal relative to DMSO: C2C12 CMV-LacZ myotubes, fold relative to DMSO
How it was run: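 β-Gal level was the read-out, measured in a clonal C2C12 line expressing LacZ from a CMV promoter. Dose-response curves used six concentrations, 0.5 μM up to 40 μM, with duplicate points.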

Compound	CMV-LACZ in Myotubes (β-galactosidase activity relative to DMSO) ([3]; 5 uM)	CMV-LACZ in Myotubes (β-galactosidase activity relative to DMSO) ([3]; 10 uM)	CMV-LACZ in Myotubes (β-galactosidase activity relative to DMSO) ([3]; 20 uM)	CMV-LACZ in Myotubes (β-galactosidase activity relative to DMSO) ([3]; 40 uM)	Burkin Assay in Myoblasts, signal relative to DMSO ([1]; 0.5 uM)	Burkin Assay in Myoblasts, signal relative to DMSO ([1]; 1 uM)	Burkin Assay in Myoblasts, signal relative to DMSO ([1]; 5 uM)	Burkin Assay in Myoblasts, signal relative to DMSO ([1]; 10 uM)	Burkin Assay in Myoblasts, signal relative to DMSO ([1]; 20 uM)	Burkin Assay in Myoblasts, signal relative to DMSO ([1]; 40 uM)	Burkin Assay in Myotubes, α7 integrin LacZ reporter signal relative to DMSO ([2]; 0.5 uM)	Burkin Assay in Myotubes, α7 integrin LacZ reporter signal relative to DMSO ([2]; 1 uM)	Burkin Assay in Myotubes, α7 integrin LacZ reporter signal relative to DMSO ([2]; 5 uM)	Burkin Assay in Myotubes, α7 integrin LacZ reporter signal relative to DMSO ([2]; 10 uM)	Burkin Assay in Myotubes, α7 integrin LacZ reporter signal relative to DMSO ([2]; 20 uM)	Burkin Assay in Myotubes, α7 integrin LacZ reporter signal relative to DMSO ([2]; 40 uM)	CMV-LACZ in Myotubes, signal relative to DMSO ([3]; 5 uM)	CMV-LACZ in Myotubes, signal relative to DMSO ([3]; 10 uM)	CMV-LACZ in Myotubes, signal relative to DMSO ([3]; 20 uM)	CMV-LACZ in Myotubes, signal relative to DMSO ([3]; 40 uM)	further results
CCc1ccc(N(C(=O)c2snc(C(N)=O)c2N)C(C(=O)NC2CCCC2)c2ccco2)cc1 (stereo not drawn) [MLS001216714-01]	0.9162	0.98	1.417	3.633																	fold induction at 0.5 µM ([1]; 0.5 uM): 1.02; fold induction at 1 µM ([1]; 1 uM): 0.971; fold induction at 5 µM ([1]; 5 uM): 1.04; fold induction at 10 µM ([1]; 10 uM): 1.14; fold induction at 20 µM ([1]; 20 uM): 1.09; fold induction at 40 µM ([1]; 40 uM): 0.274; fold induction at 0.5 µM ([2]; 0.5 uM): 1.03; fold induction at 1 µM ([2]; 1 uM): 1.17; fold induction at 5 µM ([2]; 5 uM): 1.1; fold induction at 10 µM ([2]; 10 uM): 1.32; fold induction at 20 µM ([2]; 20 uM): 0.706; fold induction at 40 µM ([2]; 40 uM): 0.677
Cc1nnc(NC(=O)CSc2nnc(CCNC(=O)c3ccccc3F)n2C)s1 [MLS001217045-01]	0.9613	0.9821	0.9272	0.9127																	Burkin Assay in Myoblasts, value relative to DMSO ([1]; 0.5 uM): 0.881; Burkin Assay in Myoblasts, value relative to DMSO ([1]; 1 uM): 0.9697; Burkin Assay in Myoblasts, value relative to DMSO ([1]; 5 uM): 1.087; Burkin Assay in Myoblasts, value relative to DMSO ([1]; 10 uM): 1.112; Burkin Assay in Myoblasts, value relative to DMSO ([1]; 20 uM): 1.057; Burkin Assay in Myoblasts, value relative to DMSO ([1]; 40 uM): 1.109; Burkin Assay in Myotubes (signal relative to DMSO) ([2]; 0.5 uM): 1.001; Burkin Assay in Myotubes (signal relative to DMSO) ([2]; 1 uM): 1.156; Burkin Assay in Myotubes (signal relative to DMSO) ([2]; 5 uM): 0.94; Burkin Assay in Myotubes (signal relative to DMSO) ([2]; 10 uM): 1.154; Burkin Assay in Myotubes (signal relative to DMSO) ([2]; 20 uM): 1.115; Burkin Assay in Myotubes (signal relative to DMSO) ([2]; 40 uM): 1.051
O=c1[nH]c(C2CCCN(S(=O)(=O)c3ccccc3)C2)nc2c1nnn2Cc1cccc(Cl)c1 (stereo not drawn) [MLS001217286-01]	0.9599	1.227	0.3991	0.3604																	Burkin Assay in Myoblasts, value relative to DMSO ([1]; 0.5 uM): 0.7428; Burkin Assay in Myoblasts, value relative to DMSO ([1]; 1 uM): 0.8506; Burkin Assay in Myoblasts, value relative to DMSO ([1]; 5 uM): 0.7671; Burkin Assay in Myoblasts, value relative to DMSO ([1]; 10 uM): 0.8273; Burkin Assay in Myoblasts, value relative to DMSO ([1]; 20 uM): 1.006; Burkin Assay in Myoblasts, value relative to DMSO ([1]; 40 uM): 1.068; Burkin Assay in Myotubes (signal relative to DMSO) ([2]; 0.5 uM): 0.7617; Burkin Assay in Myotubes (signal relative to DMSO) ([2]; 1 uM): 0.9911; Burkin Assay in Myotubes (signal relative to DMSO) ([2]; 5 uM): 1.193; Burkin Assay in Myotubes (signal relative to DMSO) ([2]; 10 uM): 1.219; Burkin Assay in Myotubes (signal relative to DMSO) ([2]; 20 uM): 1.095; Burkin Assay in Myotubes (signal relative to DMSO) ([2]; 40 uM): 0.5964
CC1CCN(S(=O)(=O)c2ccc(S(=O)(=O)N3CCCC3)cc2)CC1 [MLS001217673-01]					0.8494	0.8343	0.9353	0.9256	0.8325	0.8079	0.8894	0.749	0.9699	0.9516	1.095	1.078	0.936	0.9409	1.161	0.9352	
CCCCNC(=O)CN(C(=O)c1snc(C(=O)NC2CCCCC2)c1N)c1ccc(OC)cc1OC [MLS001217697-01]	1.2	0.8647	0.764	0.7395																	fold induction at 0.5 µM ([1]; 0.5 uM): 1.09; fold induction at 1 µM ([1]; 1 uM): 1.12; fold induction at 5 µM ([1]; 5 uM): 1.18; fold induction at 10 µM ([1]; 10 uM): 1.16; fold induction at 20 µM ([1]; 20 uM): 0.883; fold induction at 40 µM ([1]; 40 uM): 1.01; fold induction at 0.5 µM ([2]; 0.5 uM): 1.2; fold induction at 1 µM ([2]; 1 uM): 0.968; fold induction at 5 µM ([2]; 5 uM): 1.16; fold induction at 10 µM ([2]; 10 uM): 1.2; fold induction at 20 µM ([2]; 20 uM): 1.12; fold induction at 40 µM ([2]; 40 uM): 1.12
COc1cc(C(C(=O)NC2CCCCC2)N(C(=O)c2snc(C(N)=O)c2N)c2ccc(C)cc2)ccc1O (stereo not drawn) [MLS001218427-01]					0.9466	0.9485	0.8334	0.7663	0.2232	0.3039	0.8052	0.7974	0.8464	0.6054	0.3311	0.429	1.209	15.1793	34.571	0.6965	
COc1ccc(S(=O)(=O)Nc2ccc(S(=O)(=O)Nc3nccs3)cc2)cc1 [MLS001218795-01]					1.024	0.9596	0.8609	0.9116	0.9353	0.9876	0.9648	0.9363	0.9778	0.9991	0.9463	0.9606	0.9553	1.023	1.2115	0.989	
Cc1cc(NC(=O)CN2C(=O)/C(=C/c3ccccc3F)SC2=S)no1 [MLS001219159-01]																	0.9354	0.9316	0.9636	1.023	Burkin Assay in Myoblasts, value relative to DMSO ([1]; 0.5 uM): 0.9597; Burkin Assay in Myoblasts, value relative to DMSO ([1]; 1 uM): 1.059; Burkin Assay in Myoblasts, value relative to DMSO ([1]; 5 uM): 0.9161; Burkin Assay in Myoblasts, value relative to DMSO ([1]; 10 uM): 0.9644; Burkin Assay in Myoblasts, value relative to DMSO ([1]; 20 uM): 0.9199; Burkin Assay in Myoblasts, value relative to DMSO ([1]; 40 uM): 0.952; Burkin Assay in Myotubes (signal relative to DMSO) ([2]; 0.5 uM): 0.861; Burkin Assay in Myotubes (signal relative to DMSO) ([2]; 1 uM): 0.9965; Burkin Assay in Myotubes (signal relative to DMSO) ([2]; 5 uM): 0.807; Burkin Assay in Myotubes (signal relative to DMSO) ([2]; 10 uM): 1.064; Burkin Assay in Myotubes (signal relative to DMSO) ([2]; 20 uM): 0.9474; Burkin Assay in Myotubes (signal relative to DMSO) ([2]; 40 uM): 0.9507
Cc1cc(C(=O)Nc2cccc3ccccc23)c(C)o1 [MLS001219345-01]					0.3027	1.119	1.046	1.014	0.9807	0.9227	0.9416	0.9889	1.078	1.0424	0.7146	0.9232	1.188	0.8631	1.0075	1.0255	
